Data taken from US20090036422A1 (priority 2007, published 2009).

biological target: T1, human orexin-2 (hOX2) receptor (Homo sapiens, UniProt O43614); experiment: Intracellular Ca2+ mobilization assay (FLIPR), CHO(dHFr-) cells expressing hOX2, orexin-A at EC80 as agonist; format: cell-based; settings: Kb=IC50/(1+[A]/EC50); CHO(dHFr-)-OX2R cells, antagonist applied 25 min before orexin-A EC80
T1 construct: expressed in transfected cells
T1 sequence (O43614 1-444): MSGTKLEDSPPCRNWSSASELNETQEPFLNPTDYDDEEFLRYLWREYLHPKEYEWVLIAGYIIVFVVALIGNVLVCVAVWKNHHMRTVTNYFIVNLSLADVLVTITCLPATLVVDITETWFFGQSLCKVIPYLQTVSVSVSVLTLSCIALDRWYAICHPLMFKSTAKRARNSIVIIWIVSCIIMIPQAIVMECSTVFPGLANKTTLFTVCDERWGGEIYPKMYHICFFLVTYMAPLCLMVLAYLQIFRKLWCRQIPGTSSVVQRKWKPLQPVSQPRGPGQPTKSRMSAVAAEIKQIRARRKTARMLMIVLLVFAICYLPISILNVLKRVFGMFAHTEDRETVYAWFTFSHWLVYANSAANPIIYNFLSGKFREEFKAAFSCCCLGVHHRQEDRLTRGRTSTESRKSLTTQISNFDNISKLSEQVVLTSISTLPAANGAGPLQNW
Procedure: Intracellular Ca^2+ Mobilization Assay
The Chinese Hamster Ovary (dHFr−) mutant cell line stably expressing human orexin-1 (hOX1) or human orexin-2 (hOX2) receptors were maintained in Dulbecco's Modified Eagle Medium (1×) with GlutaMax™ 1, 4500 mg/L D-Glucose and Sodium Pyruvate (Catalog No. 31966-021, Invitrogen, Carlsbad, Calif.), 5% dialyzed fetal calf serum (Catalog No. 26400-044), 100 μg/ml penicillin and 100 μg/ml streptomycin. The cells were seeded at 5×10^4 cells/well in the poly-D-lysine treated, 96-well, black/clear-bottomed plates (Catalog No. BD356640, BD Biosciences, Palo Alto, Calif.). 24 h later, the cells were loaded for 1 h at 37° C. with 4 μM Flou-4 acetoxymethyl ester (Catalog No. F-14202, Molecular Probes, Eugene, Oreg.) in FLIPR buffer (1×HBSS, 20 mM HEPES, 2.5 mM Probenecid). Hanks' Balanced Salt Solution (HBSS) (10×) (catalog No. 14065-049) and HEPES (1M) (catalog No. 15630-056) were purchased from Invitrogen, Carlsbad, Calif. Probenecid (250 mM) (catalog No. P8761) was from Sigma, Buchs, Switzerland. The cells were washed five times with FLIPR buffer to remove excess dye and intracellular calcium mobilization, [Ca^2+]i were measured using a Fluorometric Imaging Plate Reader (FLIPR-96, Molecular Devices, Menlo Park, Calif.) as described previously (Malherbe et al., Mol. Pharmacol., 64, 823-832, 2003). Orexin A (catalog No. 1455, Toris Cookson Ltd, Bristol, UK) was used as agonist. Orexin A (50 mM stock solution in DMSO) was diluted in FLIPR buffer +0.1% BSA. The EC50 and EC80 values of orexin-A were measured daily from standard agonist concentration-response curves in CHO(dHFr−) —OX1R and —OX2R cell lines. All compounds were dissolved in 100% DMSO. Inhibition curves were determined by addition of 11 concentrations (0.0001-10 μM) of inhibitory compounds and using EC80 value of orexin-A as agonist (a concentration which gave 80% of max agonist response, determined daily). The antagonists were applied 25 min (incubation at 37° C.) before the application of the agonist. Responses were measured as peak increase in fluorescence minus basal, normalized to the maximal stimulatory effect induced by EC80 value of orexin-A or orexin-B. Inhibition curves were fitted according to the Hill equation: y=100/(1+(x/IC50)^nH), where nH=slope factor using Excel-fit 4 software (Microsoft).
Kb values were calculated according to the following equation Kb=IC50/(1+[A]/EC50) where A is the concentration of agonist added which is very close to agonist EC80 value, and IC50 and EC50 values were derived from the antagonist inhibition and orexin-A or B agonist curves, respectively.

First: CCOC(C(=O)N(CCc1ccc(C(F)(F)F)cc1)c1ccc(C)c(C)c1)c1ccccc1 (racemic) [Example 221, (R,S)—N-(3,4-Dimethyl-phenyl)-2-ethoxy-2-phenyl-N-[2-(4-trifluoromethyl-phenyl)-ethyl]-acetamide]
Second: COc1ccc(N(CCc2ccc(C(F)(F)F)cc2)C(=O)C(N)c2ccccc2)cc1F (centres unmarked) [Example 64, 2-Amino-N-(3-fluoro-4-methoxy-phenyl)-2-phenyl-N-[2-(4-trifluoromethyl-phenyl)-ethyl]-acetamide]
The Kb of the first is 2.2-fold higher: 0.0834 µM for the first, 0.0383 µM for the second.

Going from `COc1ccc(N(CCc2ccc(C(F)(F)F)cc2)C(=O)[C@H](N)c2ccccc2)cc1OC` (single isomer, unassigned) [Example 174] to `COc1ccc(N(CCc2ccc(C(F)(F)F)cc2)C(=O)C(N)c2ccccc2)cc1OC` (centres unmarked) [Example 45, 2-Amino-N-(3,4-dimethoxy-phenyl)-2-phenyl-N-[2-(4-trifluoromethyl-phenyl)-ethyl]-acetamide], the Kb falls from 0.046 µM to 0.0018 µM (26-fold).

Going from `COc1ccccc1CC(=O)N(CCc1ccc(C(F)(F)F)cc1)c1ccc(OC)c(OC)c1` [Example 14, N-(3,4-dimethoxyphenyl)-2-(2-methoxyphenyl)-N-{2-[4-(trifluoromethyl)phenyl]ethyl}acetamide] to `COc1ccc(N(CCc2ccc(C(F)(F)F)cc2)C(=O)C(O)c2ccccc2OC)cc1OC` (centres unmarked) [Example 17, N-(3,4-dimethoxyphenyl)-2-hydroxy-2-(2-methoxyphenyl)-N-{2-[4-(trifluoromethyl)phenyl]ethyl}acetamide], the Kb falls from 0.0342 µM to 0.0165 µM (2.1-fold).

`COc1ccc(N(CCc2ccc(C(F)(F)F)cc2)C(=O)[C@@H](O)c2ccccc2)cc1OC` [Example 23, (2S)-N-(3,4-dimethoxyphenyl)-2-hydroxy-2-phenyl-N-{2-[4-(trifluoromethyl)phenyl]ethyl}acetamide] and `CNC(C(=O)N(CCc1ccc(C(F)(F)F)cc1)c1ccc(OC)c(OC)c1)c1ccccc1` (centres unmarked) [Example 53, N-(3,4-Dimethoxy-phenyl)-2-methylamino-2-phenyl-N-[2-(4-trifluoromethyl-phenyl)-ethyl]-acetamide] are within 1.5-fold of each other in Kb: 0.0226 µM for the first, 0.0305 µM for the second.

`COc1ccc(N(CCc2ccc(C(F)(F)F)cc2)C(=O)C(O)c2ccc(F)cc2)cc1OC` (centres unmarked) [Example 26, N-(3,4-dimethoxyphenyl)-2-(4-fluorophenyl)-2-hydroxy-N-{2-[4-(trifluoromethyl)phenyl]ethyl}acetamide] and `COc1ccc(N(CCc2ccc(C(F)(F)F)cc2)C(=O)C(O)c2ccc(Cl)cc2)cc1OC` (centres unmarked) [Example 30, 2-(4-chlorophenyl)-N-(3,4-dimethoxyphenyl)-2-hydroxy-N-{2-[4-(trifluoromethyl)phenyl]ethyl}acetamide] are within 1.5-fold of each other in Kb: 0.0592 µM for the first, 0.0757 µM for the second.

Compared with `COc1ccc(C(O)C(=O)N(CCc2ccc(C(F)(F)F)cc2)c2ccc(OC)c(OC)c2)cc1O` (centres unmarked) [Example 27, N-(3,4-dimethoxyphenyl)-2-hydroxy-2-(3-hydroxy-4-methoxyphenyl)-N-{2-[4-(trifluoromethyl)phenyl]ethyl}acetamide], `COc1ccc(N(CCc2ccc(C(F)(F)F)cc2)C(=O)C(N)c2ccccc2OC)cc1OC` (centres unmarked) [Example 35, 2-Amino-N-(3,4-dimethoxy-phenyl)-2-(2-methoxy-phenyl)-N-[2-(4-trifluoromethyl-phenyl)-ethyl]-acetamide] is 8.4-fold lower in Kb: 0.0737 µM for the first, 0.0088 µM for the second.

Compared with `COc1ccc(N(CCc2ccc(C(F)(F)F)cc2)C(=O)C(O)c2ccccc2F)cc1OC` (centres unmarked) [Example 31, N-(3,4-dimethoxyphenyl)-2-(2-fluorophenyl)-2-hydroxy-N-{2-[4-(trifluoromethyl)phenyl]ethyl}acetamide], `COc1ccc(N(CCc2ccc(C(F)(F)F)cc2)C(=O)C(N)c2ccccc2OC)cc1F` (centres unmarked) [Example 42] is 1.7-fold higher in Kb: 0.0336 µM for the first, 0.0559 µM for the second.

First: CNC(C(=O)N(CCc1ccc(C(F)(F)F)cc1)c1ccc(OC)c(OC)c1)c1ccccc1OC (centres unmarked) [Example 34, N-(3,4-Dimethoxy-phenyl)-2-(2-methoxy-phenyl)-2-methylamino-N-[2-(4-trifluoromethyl-phenyl)-ethyl]-acetamide]
Second: COc1ccc(N(CCc2ccc(C(F)(F)F)cc2)C(=O)C(N)c2ccccc2OC)cc1Cl (centres unmarked) [Example 43, 2-Amino-N-(3-chloro-4-methoxy-phenyl)-2-(2-methoxy-phenyl)-N-[2-(4-trifluoromethyl-phenyl)-ethyl]-acetamide]
The Kb of the first is 1.7-fold higher: 0.027 µM for the first, 0.0162 µM for the second.

Going from `COc1cccc(N(CCc2ccc(C(F)(F)F)cc2)C(=O)C(N)c2ccccc2OC)c1` (centres unmarked) [Example 38, 2-Amino-2-(2-methoxy-phenyl)-N-(3-methoxy-phenyl)-N-[2-(4-trifluoromethyl-phenyl)-ethyl]-acetamide] to `COc1cccc(N(CCc2ccc(C(F)(F)F)cc2)C(=O)C(N)c2ccccc2)c1` (centres unmarked) [Example 60, 2-Amino-N-(3-methoxy-phenyl)-2-phenyl-N-[2-(4-trifluoromethyl-phenyl)-ethyl]-acetamide], the Kb falls from 0.0577 µM to 0.0231 µM (2.5-fold).

Compared with `COc1ccccc1C(N)C(=O)N(CCc1ccc(C(F)(F)F)cc1)c1ccc2c(c1)OCO2` (centres unmarked) [Example 41], `NC(C(=O)N(CCc1ccc(C(F)(F)F)cc1)c1ccc2c(c1)OCO2)c1ccccc1` (centres unmarked) [Example 58, 2-Amino-N-benzo[1,3]dioxol-5-yl-2-phenyl-N-[2-(4-trifluoromethyl-phenyl)-ethyl]-acetamide] is 1.8-fold lower in Kb: 0.0505 µM for the first, 0.0275 µM for the second.

Compared with `COc1ccccc1C(N)C(=O)N(CCc1ccc(C(F)(F)F)cc1)c1ccc2c(c1)OC(F)(F)C(F)(F)O2` (centres unmarked) [Example 44, 2-Amino-2-(2-methoxy-phenyl)-N-(2,2,3,3-tetrafluoro-2,3-dihydro-benzo[1,4]dioxin-6-yl)-N-[2-(4-trifluoromethyl-phenyl)-ethyl]-acetamide], `COc1cc(N(CCc2ccc(C(F)(F)F)cc2)C(=O)C(N)c2ccccc2)ccc1Cl` (centres unmarked) [Example 65, 2-Amino-N-(4-chloro-3-methoxy-phenyl)-2-phenyl-N-[2-(4-trifluoromethyl-phenyl)-ethyl]-acetamide] is 4.1-fold higher in Kb: 0.0069 µM for the first, 0.0285 µM for the second.

`COc1ccc(C)c(N(CCc2ccc(C(F)(F)F)cc2)C(=O)C(N)c2ccccc2)c1` (centres unmarked) [Example 59, 2-Amino-N-(5-methoxy-2-methyl-phenyl)-2-phenyl-N-[2-(4-trifluoromethyl-phenyl)-ethyl]-acetamide] and `COc1ccc(N(CCc2ccc(C(F)(F)F)cc2)C(=O)C(N)c2ccccc2)cc1Cl` (centres unmarked) [Example 66, 2-Amino-N-(3-chloro-4-methoxy-phenyl)-2-phenyl-N-[2-(4-trifluoromethyl-phenyl)-ethyl]-acetamide] are within 1.5-fold of each other in Kb: 0.0143 µM for the first, 0.013 µM for the second.

Compared with `COc1ccc(N(CCc2ccc(C(F)(F)F)cc2)C(=O)C(N)c2ccc(F)cc2)cc1OC` (centres unmarked) [Example 61, 2-Amino-N-(3,4-dimethoxy-phenyl)-2-(4-fluoro-phenyl)-N-[2-(4-trifluoromethyl-phenyl)-ethyl]-acetamide], `COc1ccc(N(CCc2ccc(C(F)(F)F)cc2)C(=O)C(N)c2ccc(Cl)cc2)cc1OC` (centres unmarked) [Example 62] is 30-fold higher in Kb: 0.0025 µM for the first, 0.0751 µM for the second.

Going from `COc1ccc(N(CCc2ccc(C(F)(F)F)cc2)C(=O)C(N)c2cccc(Cl)c2)cc1OC` (centres unmarked) [Example 63, 2-Amino-2-(3-chloro-phenyl)-N-(3,4-dimethoxy-phenyl)-N-[2-(4-trifluoromethyl-phenyl)-ethyl]-acetamide] to `CCOc1ccc(N(CCc2ccc(C(F)(F)F)cc2)C(=O)C(N)c2ccccc2)cc1OCC` (centres unmarked) [Example 68, 2-Amino-N-(3,4-diethoxy-phenyl)-2-phenyl-N-[2-(4-trifluoromethyl-phenyl)-ethyl]-acetamide], the Kb falls from 0.0664 µM to 0.0117 µM (5.7-fold).

`Cc1ccc(N(CCc2ccc(C(F)(F)F)cc2)C(=O)C(N)c2ccccc2)cc1` (centres unmarked) [Example 69, 2-Amino-2-phenyl-N-p-tolyl-N-[2-(4-trifluoromethyl-phenyl)-ethyl]-acetamide] was tested, and the Kb was 0.0828 µM.
